{"source": "paper PMC7827406", "about": "“Structure–Activity Relationship (SAR) Study of Spautin-1 to Entail the Discovery of Novel NEK4 Inhibitors” (International Journal of Molecular Sciences, 2021)", "test_in_all_cases": "biochemical", "parameters_in_all_cases": "Eurofins KinaseProfiler full panel at Km ATP, residual kinase activity (%) relative to DMSO", "key": {"BTK(h)": {"target": "BTK(h) (Homo sapiens, UniProt Q06187)", "sequence (Q06187 whole entry)": "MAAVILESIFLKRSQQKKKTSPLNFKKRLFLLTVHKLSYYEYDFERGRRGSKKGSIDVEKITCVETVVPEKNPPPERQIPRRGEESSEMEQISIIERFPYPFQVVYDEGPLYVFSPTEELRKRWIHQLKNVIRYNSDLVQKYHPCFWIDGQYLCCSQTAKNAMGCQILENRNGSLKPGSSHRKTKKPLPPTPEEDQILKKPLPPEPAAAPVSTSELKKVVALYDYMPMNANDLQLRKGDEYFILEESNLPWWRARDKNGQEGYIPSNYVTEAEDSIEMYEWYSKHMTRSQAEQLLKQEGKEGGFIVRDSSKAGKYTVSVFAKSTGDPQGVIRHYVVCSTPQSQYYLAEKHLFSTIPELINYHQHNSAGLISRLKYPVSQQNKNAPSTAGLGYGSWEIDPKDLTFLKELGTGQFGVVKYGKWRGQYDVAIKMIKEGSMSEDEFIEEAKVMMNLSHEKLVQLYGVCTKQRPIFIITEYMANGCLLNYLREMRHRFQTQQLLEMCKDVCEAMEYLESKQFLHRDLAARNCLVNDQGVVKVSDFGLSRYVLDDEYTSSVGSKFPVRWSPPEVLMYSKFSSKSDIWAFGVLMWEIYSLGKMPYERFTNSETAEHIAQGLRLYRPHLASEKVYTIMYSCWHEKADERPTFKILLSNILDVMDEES", "how_it_was_run": "(§1)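 Compounds screened at 10 µM in radiometric kinase activity assays at Km ATP, reported as remaining kinase activity (%). A KINOMEscan competition-binding screen at 10 µM measured DNA-tagged kinase retained on immobilized active-site ligand by qPCR.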"}, "CK1γ3(h)": {"target": "T1, CK1γ3(h) (Homo sapiens, UniProt Q9Y6M4)", "T1 construct": "gene CSNK1G3", "T1 sequence (Q9Y6M4 whole entry)": "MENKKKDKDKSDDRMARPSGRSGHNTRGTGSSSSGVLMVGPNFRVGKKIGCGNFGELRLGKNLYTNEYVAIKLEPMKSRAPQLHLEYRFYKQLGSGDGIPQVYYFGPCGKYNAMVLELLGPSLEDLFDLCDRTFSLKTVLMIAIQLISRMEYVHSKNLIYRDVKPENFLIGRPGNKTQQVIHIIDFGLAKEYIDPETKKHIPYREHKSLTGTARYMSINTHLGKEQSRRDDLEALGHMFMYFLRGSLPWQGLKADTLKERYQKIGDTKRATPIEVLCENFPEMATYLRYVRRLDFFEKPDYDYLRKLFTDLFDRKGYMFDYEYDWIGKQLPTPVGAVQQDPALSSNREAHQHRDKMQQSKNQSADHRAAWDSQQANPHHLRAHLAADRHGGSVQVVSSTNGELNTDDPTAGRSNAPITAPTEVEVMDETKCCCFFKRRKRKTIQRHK", "how_it_was_run": "as §1"}, "HPK1(h)": {"target": "T2, HPK1(h) (Homo sapiens, UniProt Q92918)", "T2 construct": "gene MAP4K1", "how_it_was_run": "as §1"}, "Haspin(h)": {"target": "T3, Haspin(h) (Homo sapiens, UniProt Q8TF76)", "T3 sequence (Q8TF76 1-798)": "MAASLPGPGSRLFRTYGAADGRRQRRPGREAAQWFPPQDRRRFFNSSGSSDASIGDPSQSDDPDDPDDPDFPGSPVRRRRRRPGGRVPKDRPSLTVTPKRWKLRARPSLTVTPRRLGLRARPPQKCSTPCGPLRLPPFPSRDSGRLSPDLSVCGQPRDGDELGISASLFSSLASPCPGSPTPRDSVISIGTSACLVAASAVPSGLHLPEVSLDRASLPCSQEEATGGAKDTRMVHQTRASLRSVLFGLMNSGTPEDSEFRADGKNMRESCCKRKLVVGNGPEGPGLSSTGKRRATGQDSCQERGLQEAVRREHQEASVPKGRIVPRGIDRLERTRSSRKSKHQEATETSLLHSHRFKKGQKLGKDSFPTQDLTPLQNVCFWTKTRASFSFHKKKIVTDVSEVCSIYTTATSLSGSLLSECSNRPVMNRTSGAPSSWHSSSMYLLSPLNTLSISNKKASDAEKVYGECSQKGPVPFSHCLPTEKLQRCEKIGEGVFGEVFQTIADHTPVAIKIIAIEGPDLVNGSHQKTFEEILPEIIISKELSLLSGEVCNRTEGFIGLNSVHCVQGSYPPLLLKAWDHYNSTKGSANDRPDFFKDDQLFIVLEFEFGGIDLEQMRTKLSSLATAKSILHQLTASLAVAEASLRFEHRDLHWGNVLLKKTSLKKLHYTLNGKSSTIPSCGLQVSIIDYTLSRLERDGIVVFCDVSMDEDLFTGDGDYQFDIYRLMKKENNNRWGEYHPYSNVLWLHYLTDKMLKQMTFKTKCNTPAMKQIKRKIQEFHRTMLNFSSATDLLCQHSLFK", "how_it_was_run": "as §1"}, "MAP4K5(h)": {"target": "MAP4K5(h) (Homo sapiens, UniProt Q9Y4K4)", "sequence (Q9Y4K4 whole entry)": "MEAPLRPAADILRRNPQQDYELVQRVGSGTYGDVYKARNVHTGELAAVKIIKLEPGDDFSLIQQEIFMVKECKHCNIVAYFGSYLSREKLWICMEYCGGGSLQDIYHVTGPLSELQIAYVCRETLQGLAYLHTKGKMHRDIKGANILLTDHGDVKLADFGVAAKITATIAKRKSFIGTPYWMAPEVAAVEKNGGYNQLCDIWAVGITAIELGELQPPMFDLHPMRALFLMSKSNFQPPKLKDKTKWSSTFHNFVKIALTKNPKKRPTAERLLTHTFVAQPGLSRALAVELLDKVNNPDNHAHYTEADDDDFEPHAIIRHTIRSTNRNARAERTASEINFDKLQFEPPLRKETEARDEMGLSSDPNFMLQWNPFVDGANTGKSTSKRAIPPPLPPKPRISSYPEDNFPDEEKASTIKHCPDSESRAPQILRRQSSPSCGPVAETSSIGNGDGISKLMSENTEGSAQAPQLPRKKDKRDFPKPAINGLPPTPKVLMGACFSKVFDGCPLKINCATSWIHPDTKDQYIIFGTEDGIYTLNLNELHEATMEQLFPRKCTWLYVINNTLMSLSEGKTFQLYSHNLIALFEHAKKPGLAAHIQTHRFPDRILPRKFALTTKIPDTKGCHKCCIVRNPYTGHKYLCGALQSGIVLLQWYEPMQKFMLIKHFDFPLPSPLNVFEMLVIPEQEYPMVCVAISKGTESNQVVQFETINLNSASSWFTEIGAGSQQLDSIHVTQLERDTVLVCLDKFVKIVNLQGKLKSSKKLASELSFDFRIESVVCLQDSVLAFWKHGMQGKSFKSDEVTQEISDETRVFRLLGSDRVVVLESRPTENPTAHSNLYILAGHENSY", "how_it_was_run": "as §1"}, "MKK4(m)": {"target": "T4, MKK4(m) (Mus musculus, UniProt P47809)", "T4 construct": "gene Map2k4", "T4 sequence (P47809 1-397)": "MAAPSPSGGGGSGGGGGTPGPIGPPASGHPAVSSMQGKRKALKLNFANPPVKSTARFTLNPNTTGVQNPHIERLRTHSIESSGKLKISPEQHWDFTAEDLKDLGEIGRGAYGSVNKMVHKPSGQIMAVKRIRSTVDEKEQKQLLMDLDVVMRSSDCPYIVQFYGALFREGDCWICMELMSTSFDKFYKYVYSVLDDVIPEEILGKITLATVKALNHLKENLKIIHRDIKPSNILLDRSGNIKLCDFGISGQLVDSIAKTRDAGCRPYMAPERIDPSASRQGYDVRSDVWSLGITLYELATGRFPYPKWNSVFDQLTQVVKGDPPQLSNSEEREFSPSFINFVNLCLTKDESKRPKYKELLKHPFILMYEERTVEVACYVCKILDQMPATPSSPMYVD", "how_it_was_run": "as §1"}, "MYLK2(h)": {"target": "MYLK2(h) (Homo sapiens, UniProt Q9H1R3)", "sequence (Q9H1R3 whole entry)": "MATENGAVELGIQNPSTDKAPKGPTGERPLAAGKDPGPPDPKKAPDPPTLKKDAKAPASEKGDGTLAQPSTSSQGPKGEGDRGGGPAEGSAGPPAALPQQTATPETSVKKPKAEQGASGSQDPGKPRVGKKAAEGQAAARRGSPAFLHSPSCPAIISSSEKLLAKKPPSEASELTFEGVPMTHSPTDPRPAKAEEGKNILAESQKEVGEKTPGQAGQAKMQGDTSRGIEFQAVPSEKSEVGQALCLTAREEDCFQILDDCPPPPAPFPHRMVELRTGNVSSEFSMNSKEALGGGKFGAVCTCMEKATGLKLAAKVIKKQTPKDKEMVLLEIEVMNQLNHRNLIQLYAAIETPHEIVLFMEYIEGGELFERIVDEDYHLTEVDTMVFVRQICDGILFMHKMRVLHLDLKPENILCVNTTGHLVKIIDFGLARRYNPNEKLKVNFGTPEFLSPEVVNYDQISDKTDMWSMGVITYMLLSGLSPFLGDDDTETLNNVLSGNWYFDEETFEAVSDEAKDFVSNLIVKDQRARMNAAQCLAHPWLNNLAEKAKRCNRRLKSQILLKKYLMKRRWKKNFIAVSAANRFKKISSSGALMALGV", "how_it_was_run": "as §1"}, "[1]": {"target": "T5, PI3 Kinase (p110a/p85a)(h) (Homo sapiens, UniProt P42336)", "T5 construct": "gene PIK3CA", "T5 sequence (P42336 whole entry)": "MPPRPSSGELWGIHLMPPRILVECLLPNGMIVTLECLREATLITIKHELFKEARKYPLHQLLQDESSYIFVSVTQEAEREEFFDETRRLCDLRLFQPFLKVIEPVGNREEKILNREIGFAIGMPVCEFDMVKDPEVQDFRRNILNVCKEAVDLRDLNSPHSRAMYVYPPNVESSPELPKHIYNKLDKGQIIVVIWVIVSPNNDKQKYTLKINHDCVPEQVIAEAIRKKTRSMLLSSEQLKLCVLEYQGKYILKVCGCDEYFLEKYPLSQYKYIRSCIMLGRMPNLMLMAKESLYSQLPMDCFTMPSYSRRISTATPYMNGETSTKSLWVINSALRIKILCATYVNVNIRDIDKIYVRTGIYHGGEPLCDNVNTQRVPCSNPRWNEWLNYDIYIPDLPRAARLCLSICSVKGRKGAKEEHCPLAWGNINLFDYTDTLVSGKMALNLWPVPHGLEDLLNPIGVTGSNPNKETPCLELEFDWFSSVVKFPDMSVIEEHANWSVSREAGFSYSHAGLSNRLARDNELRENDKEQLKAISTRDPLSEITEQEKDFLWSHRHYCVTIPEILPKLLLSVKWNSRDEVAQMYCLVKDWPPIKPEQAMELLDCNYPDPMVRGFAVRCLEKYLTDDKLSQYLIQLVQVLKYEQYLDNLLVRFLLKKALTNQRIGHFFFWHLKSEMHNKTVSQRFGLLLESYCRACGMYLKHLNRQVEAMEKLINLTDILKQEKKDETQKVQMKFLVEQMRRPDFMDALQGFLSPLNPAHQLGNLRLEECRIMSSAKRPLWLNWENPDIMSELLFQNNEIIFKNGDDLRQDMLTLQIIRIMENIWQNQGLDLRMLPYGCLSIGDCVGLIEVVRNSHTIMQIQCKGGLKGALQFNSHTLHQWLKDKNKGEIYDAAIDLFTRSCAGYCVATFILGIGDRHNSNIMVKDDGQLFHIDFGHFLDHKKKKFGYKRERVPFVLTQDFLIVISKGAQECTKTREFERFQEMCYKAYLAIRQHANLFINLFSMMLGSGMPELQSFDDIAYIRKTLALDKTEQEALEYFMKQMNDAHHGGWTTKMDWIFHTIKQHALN", "T5 sequence (P27986 whole entry partner)": "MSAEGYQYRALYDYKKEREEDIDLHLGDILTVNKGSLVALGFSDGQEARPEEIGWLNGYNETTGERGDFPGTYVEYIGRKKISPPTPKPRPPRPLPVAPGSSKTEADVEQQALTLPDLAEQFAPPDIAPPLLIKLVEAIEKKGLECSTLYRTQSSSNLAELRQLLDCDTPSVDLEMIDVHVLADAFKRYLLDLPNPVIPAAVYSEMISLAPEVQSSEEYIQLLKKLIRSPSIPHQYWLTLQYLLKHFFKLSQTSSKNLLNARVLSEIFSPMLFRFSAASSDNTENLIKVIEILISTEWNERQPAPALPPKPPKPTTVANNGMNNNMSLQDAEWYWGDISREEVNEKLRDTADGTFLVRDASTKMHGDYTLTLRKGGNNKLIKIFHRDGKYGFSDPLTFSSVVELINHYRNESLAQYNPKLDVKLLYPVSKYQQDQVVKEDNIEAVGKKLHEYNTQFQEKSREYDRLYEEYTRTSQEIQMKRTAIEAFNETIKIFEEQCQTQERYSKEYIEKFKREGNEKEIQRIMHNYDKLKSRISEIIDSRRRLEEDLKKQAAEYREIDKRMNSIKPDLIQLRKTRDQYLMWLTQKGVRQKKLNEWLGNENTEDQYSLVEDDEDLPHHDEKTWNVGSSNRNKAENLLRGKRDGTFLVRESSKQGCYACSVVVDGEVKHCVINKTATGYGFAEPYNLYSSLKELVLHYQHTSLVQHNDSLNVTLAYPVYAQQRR", "how_it_was_run": "as §1"}, "SAPK3(h)": {"target": "T6, SAPK3(h) (Homo sapiens, UniProt P53778)", "T6 construct": "gene MAPK12", "T6 sequence (P53778 1-367)": "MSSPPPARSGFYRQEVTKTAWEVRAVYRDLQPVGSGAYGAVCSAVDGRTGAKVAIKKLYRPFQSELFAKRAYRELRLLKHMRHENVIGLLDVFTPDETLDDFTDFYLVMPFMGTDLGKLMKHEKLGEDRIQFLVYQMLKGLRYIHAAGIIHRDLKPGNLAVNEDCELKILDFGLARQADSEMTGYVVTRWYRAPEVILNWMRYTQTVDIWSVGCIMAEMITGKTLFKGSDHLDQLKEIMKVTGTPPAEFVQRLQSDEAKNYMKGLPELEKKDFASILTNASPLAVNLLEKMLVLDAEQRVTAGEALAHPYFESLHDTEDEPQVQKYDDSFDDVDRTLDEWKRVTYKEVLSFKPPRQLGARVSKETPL", "how_it_was_run": "as §1"}, "[2]": {"settings": "read-out: Residual activity (%) Spautin-1 5aa"}, "[3]": {"settings": "read-out: Residual activity (%) 5as"}, "[4]": {"settings": "read-out: Residual activity (%) 5at"}, "[5]": {"settings": "read-out: Residual activity (%) 5ay"}}, "note": "Read-outs that look alike come from different tables or passages of the source.", "data": [{"compound": "Fc1ccc(CNc2ncnc3ccc(F)cc23)cc1", "note": "[5aa, 6-Fluoro-N-(4-fluorobenzyl)-4-Quinazolinamine]", "values": [{"measurement": "remaining activity at 10 µM", "setting": "BTK(h); [2]", "result": 123, "unit": "%"}, {"measurement": "remaining activity at 10 µM", "setting": "CK1γ3(h); [2]", "result": 81, "unit": "%"}, {"measurement": "remaining activity at 10 µM", "setting": "HPK1(h); [2]", "result": 92, "unit": "%"}, {"measurement": "remaining activity at 10 µM", "setting": "Haspin(h); [2]", "result": 71, "unit": "%"}, {"measurement": "remaining activity at 10 µM", "setting": "MAP4K5(h); [2]", "result": 92, "unit": "%"}, {"measurement": "remaining activity at 10 µM", "setting": "MKK4(m); [2]", "result": 105, "unit": "%"}, {"measurement": "remaining activity at 10 µM", "setting": "MYLK2(h); [2]", "result": 97, "unit": "%"}, {"measurement": "remaining activity at 10 µM", "setting": "[1]; [2]", "result": 100, "unit": "%"}, {"measurement": "remaining activity at 10 µM", "setting": "SAPK3(h); [2]", "result": 106, "unit": "%"}]}, {"compound": "Fc1ccc(CCNc2ncnc3ccc(F)cc23)cc1", "note": "[5as, 6-Fluoro-N-[2-(4-Fluorophenyl)Ethyl]-4-Quinazolinamine]", "values": [{"measurement": "remaining activity at 10 µM", "setting": "BTK(h); [3]", "result": 113, "unit": "%"}, {"measurement": "remaining activity at 10 µM", "setting": "CK1γ3(h); [3]", "result": 87, "unit": "%"}, {"measurement": "remaining activity at 10 µM", "setting": "HPK1(h); [3]", "result": 98, "unit": "%"}, {"measurement": "remaining activity at 10 µM", "setting": "Haspin(h); [3]", "result": 72, "unit": "%"}, {"measurement": "remaining activity at 10 µM", "setting": "MAP4K5(h); [3]", "result": 89, "unit": "%"}, {"measurement": "remaining activity at 10 µM", "setting": "MKK4(m); [3]", "result": 112, "unit": "%"}, {"measurement": "remaining activity at 10 µM", "setting": "MYLK2(h); [3]", "result": 80, "unit": "%"}, {"measurement": "remaining activity at 10 µM", "setting": "[1]; [3]", "result": 103, "unit": "%"}, {"measurement": "remaining activity at 10 µM", "setting": "SAPK3(h); [3]", "result": 114, "unit": "%"}]}, {"compound": "Fc1ccc2ncnc(NCCc3ccc(Cl)cc3)c2c1", "note": "[5at, N-[2-(4-Chlorophenyl)Ethyl]-6-Fluoro-4-Quinazolinamine]", "values": [{"measurement": "remaining activity at 10 µM", "setting": "BTK(h); [4]", "result": 96, "unit": "%"}, {"measurement": "remaining activity at 10 µM", "setting": "CK1γ3(h); [4]", "result": 73, "unit": "%"}, {"measurement": "remaining activity at 10 µM", "setting": "HPK1(h); [4]", "result": 96, "unit": "%"}, {"measurement": "remaining activity at 10 µM", "setting": "Haspin(h); [4]", "result": 78, "unit": "%"}, {"measurement": "remaining activity at 10 µM", "setting": "MAP4K5(h); [4]", "result": 97, "unit": "%"}, {"measurement": "remaining activity at 10 µM", "setting": "MKK4(m); [4]", "result": 118, "unit": "%"}, {"measurement": "remaining activity at 10 µM", "setting": "MYLK2(h); [4]", "result": 93, "unit": "%"}, {"measurement": "remaining activity at 10 µM", "setting": "[1]; [4]", "result": 94, "unit": "%"}, {"measurement": "remaining activity at 10 µM", "setting": "SAPK3(h); [4]", "result": 87, "unit": "%"}]}, {"compound": "COc1ccc2ncnc(Nc3cccc(F)c3)c2c1", "note": "[5ay, N-(3-Fluorophenyl)-6-Methoxy-4-Quinazolinamine]", "values": [{"measurement": "remaining activity at 10 µM", "setting": "BTK(h); [5]", "result": 126, "unit": "%"}, {"measurement": "remaining activity at 10 µM", "setting": "CK1γ3(h); [5]", "result": 83, "unit": "%"}, {"measurement": "remaining activity at 10 µM", "setting": "HPK1(h); [5]", "result": 92, "unit": "%"}, {"measurement": "remaining activity at 10 µM", "setting": "Haspin(h); [5]", "result": 36, "unit": "%"}, {"measurement": "remaining activity at 10 µM", "setting": "MAP4K5(h); [5]", "result": 80, "unit": "%"}, {"measurement": "remaining activity at 10 µM", "setting": "MKK4(m); [5]", "result": 110, "unit": "%"}, {"measurement": "remaining activity at 10 µM", "setting": "MYLK2(h); [5]", "result": 89, "unit": "%"}, {"measurement": "remaining activity at 10 µM", "setting": "[1]; [5]", "result": 101, "unit": "%"}, {"measurement": "remaining activity at 10 µM", "setting": "SAPK3(h); [5]", "result": 101, "unit": "%"}]}]}
